Experimental findings from PMC5654414, “In vitro and in vivo comparative and competitive activity-based protein profiling of GH29 α-L-fucosidases” (Chemical Science, 2015) are described below.

The target of this assay is T1, FUCA1 (Homo sapiens, UniProt P04066).
T1 sequence (P04066 32-466): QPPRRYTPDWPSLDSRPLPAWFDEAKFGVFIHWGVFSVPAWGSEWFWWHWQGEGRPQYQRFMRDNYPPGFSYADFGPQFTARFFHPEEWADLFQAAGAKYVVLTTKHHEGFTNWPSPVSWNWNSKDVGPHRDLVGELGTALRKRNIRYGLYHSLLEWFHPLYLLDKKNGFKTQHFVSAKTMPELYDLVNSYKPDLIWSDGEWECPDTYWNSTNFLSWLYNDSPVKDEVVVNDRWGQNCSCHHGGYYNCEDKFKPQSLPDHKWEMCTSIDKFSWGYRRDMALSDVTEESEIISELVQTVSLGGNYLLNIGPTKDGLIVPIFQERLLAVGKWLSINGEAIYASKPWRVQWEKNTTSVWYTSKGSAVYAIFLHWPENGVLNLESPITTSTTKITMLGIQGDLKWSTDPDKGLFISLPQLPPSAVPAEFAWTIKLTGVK
The assay is described as follows: In vitro ABP labeling of FUCA1 overexpressed in COS cells. The class given is binding. From the text:
Subsequently, we exposed lysates of spleens from a healthy human individual and a patient suffering from Gaucher disease to ABP 1.
The coding sequences of H. sapiens FUCA1 (NCBI reference sequence XM_005245821.1, using forward primer 5′-[…]-3′ and reverse primer 5′-[…]-3′), and of H. sapiens FUCA2 (NCBI reference sequence NM_032020.4, using forward primer 5′-[…] […]-3′ and reverse primer 5′-[…] […]-3′) were amplified via PCR and cloned into pDNOR-221 and thereafter sub-cloned in pcDNA™-DEST40 vector using the Gateway system (Invitrogen). Correctness of all constructs was verified by sequencing. Confluent COS-7 cells were transfected with pcDNA3.1 empty vector (Mock) or the vector with described insert in conjunction with FuGENE (Roche).
All pre-incubations and ABP labeling-reactions occurred for 30 min at 37 °C. Total lysates (50 μg), medium (500 μg) or purified protein preparations (5 μg) were labeled with 1 μM JJB256 1 or JJB244 2, dissolved in 150 mM McIlvaine buffer, pH 4.5, incubating for 30 min at 37 °C. […] Wet slab-gels were scanned on fluorescence using a Typhoon Variable Mode Imager (Amersham Biosciences) using λEX 488 nm and λEM 520 nm (band pass filter 40 nm) for green fluorescent JJB256 1 and λEX 532 nm and λEM 610 nM (band pass filter 30 nm) for red fluorescent JJB244 2 and JJB75.

With `CC1=CC(C)=[N+]2C1=C(CCCCc1cn(CCCCCCCC(=O)N3[C@@H]4[C@@H](C)[C@@H](O)[C@@H](O)[C@H](O)[C@@H]43)nn1)c1c(C)cc(C)n1[B-]2(F)F` [compound 1], the labeling of enzyme result is listed as “labeled”.
